Results as given in patent US10472688B2, “Compositions and methods for producing podophyllotoxin derivatives” (The Board of Trustees of the Leland Stanford Junior …, priority 2015, dated 2019).

Experiments:
[1] = target: T1, (−)-pluviatolide O-methyltransferase (OMT3) (Sinopodophyllum hexandrum, UniProt A0A0N9HMN6); experiment: In vitro characterization of recombinant OMT3 (steady state kinetics, substrate specificity); assay type: biochemical, P. hexandrum; settings: for acceptance as substrate by OMT3: (+)-pinoresinol 400 μM, (−)-matairesinol 40 μM, (−)-arctigenin 40 μM, quenched after 2 h
T1 construct: 6xHis (N); made in house; host or cells: E. coli BL21 (DE3), pET28a
T1 sequence (A0A0N9HMN6 1-372): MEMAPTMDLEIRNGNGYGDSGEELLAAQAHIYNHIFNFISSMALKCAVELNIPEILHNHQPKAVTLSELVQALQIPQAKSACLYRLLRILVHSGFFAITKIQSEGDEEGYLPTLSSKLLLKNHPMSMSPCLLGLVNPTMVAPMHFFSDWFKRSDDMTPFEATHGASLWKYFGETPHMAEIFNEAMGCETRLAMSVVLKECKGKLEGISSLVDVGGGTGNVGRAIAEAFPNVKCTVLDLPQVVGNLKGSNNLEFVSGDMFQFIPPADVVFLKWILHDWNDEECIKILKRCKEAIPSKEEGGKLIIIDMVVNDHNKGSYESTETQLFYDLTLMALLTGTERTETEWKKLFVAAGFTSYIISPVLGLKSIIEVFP

[2] = target: T2, CYP71BE54 (Sinopodophyllum hexandrum, UniProt A0A0N9HT29); experiment: CYP71BE54-microsome assays; settings: 4 mg/mL microsomes, 1 mM NADPH, 50 μM substrate, 30° C., 2 h
T2 sequence (A0A0N9HT29 1-507): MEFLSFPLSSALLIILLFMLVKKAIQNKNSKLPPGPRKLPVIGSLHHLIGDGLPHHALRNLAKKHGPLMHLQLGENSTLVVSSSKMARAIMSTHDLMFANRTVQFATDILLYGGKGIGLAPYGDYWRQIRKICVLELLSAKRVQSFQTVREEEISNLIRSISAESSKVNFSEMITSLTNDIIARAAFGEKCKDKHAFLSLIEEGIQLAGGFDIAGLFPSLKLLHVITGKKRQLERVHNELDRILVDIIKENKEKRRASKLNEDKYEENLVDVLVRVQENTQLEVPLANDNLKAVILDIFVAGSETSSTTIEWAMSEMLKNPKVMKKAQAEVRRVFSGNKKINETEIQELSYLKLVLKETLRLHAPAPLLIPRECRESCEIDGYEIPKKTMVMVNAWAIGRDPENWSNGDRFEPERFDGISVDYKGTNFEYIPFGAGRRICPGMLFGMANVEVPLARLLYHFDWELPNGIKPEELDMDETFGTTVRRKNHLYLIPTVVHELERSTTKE
Description: (§1) Total reaction volumes were 50 μL.

[3] = target: T3, 2-ODD (Sinopodophyllum hexandrum, UniProt A0A0N9HQ36); experiment: 2-ODD enzyme assays; assay type: biochemical, P. hexandrum; settings: 5 μg/mL 2-ODD, 2-oxoglutarate, FeSO4, 30 μM substrate, 30° C., 2 h
T3 construct: 6xHis (C); made in house; host or cells: E. coli BL21 (DE3), pET24b
Description: The above protocol was also followed for the expression and purification of 2-ODD from BL21 (DE3) E. coli harboring pET24b:2-ODD except for the following changes: the 2 L culture at OD600=0.6 was cooled to 16° C. and induced with 100 μM IPTG. The culture was further incubated at 16° C. for 24 h and cooled in ice water before proceeding with purification.
Assays lacking enzyme or 2-oxoglutarate served as negative controls.
as §1

[4] = tested on: OMT1; experiment: OMT1 enzyme assays; assay type: biochemical, P. hexandrum; settings: 10 μg/mL OMT1, 1 mM SAM, 30 or 50 μM substrate, 30° C., 2 h
Description: The above protocol was also followed for the expression and purification of OMT1 from BL21 (DE3) E. coli harboring pET24b:OMT1.
Assay lacking SAM served as negative control.
as §1

[5] = target: T4, CYP71CU1 (Sinopodophyllum hexandrum, UniProt A0A0N9HTU1); experiment: CYP71CU1-microsome assays; settings: 1 mg/mL microsomes, 1 mM NADPH, 30 or 50 μM substrate, 30° C., 2 h
T4 sequence (A0A0N9HTU1 1-493): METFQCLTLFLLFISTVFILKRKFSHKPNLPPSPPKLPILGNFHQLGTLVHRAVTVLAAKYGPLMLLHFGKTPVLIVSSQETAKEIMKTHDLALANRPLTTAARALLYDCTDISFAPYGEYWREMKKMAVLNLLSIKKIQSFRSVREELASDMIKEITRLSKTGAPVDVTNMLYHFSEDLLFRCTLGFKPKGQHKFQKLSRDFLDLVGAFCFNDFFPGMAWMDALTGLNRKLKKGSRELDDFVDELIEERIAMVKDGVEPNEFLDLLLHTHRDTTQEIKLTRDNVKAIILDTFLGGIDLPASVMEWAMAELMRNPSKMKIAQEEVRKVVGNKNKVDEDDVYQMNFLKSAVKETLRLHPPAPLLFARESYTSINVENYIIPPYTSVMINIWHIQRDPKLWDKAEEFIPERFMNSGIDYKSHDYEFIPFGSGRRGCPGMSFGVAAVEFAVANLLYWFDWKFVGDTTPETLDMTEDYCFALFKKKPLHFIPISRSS
Description: Yeast growth, induction and microsome preparation were performed according to Pompon et al. Microsomes enriched with P450 were isolated in 50 mM Tris-Cl, pH=7.4, 20% glycerol, 1 mM EDTA, flash-frozen as pellets in liquid nitrogen and kept at −80° C. for long term storage. Total protein content was estimated by measuring UV absorbance at 280 nm on a NanoDrop 1000 spectrophotometer.
CYP71CU1-microsome assays contained 1 mg/mL of CYP71CU1-microsomes, 1 mM NADPH, 30 or 50 μM of substrate and 100 mM NaCl in sodium phosphate buffer (50 mM, pH 7.4). Assays with microsomes from WAT11 harboring an empty vector or lacking NADPH served as negative controls. […] Enzyme assays with both CYP71CU1-microsomes and OMT1 contained 1 mg/mL of CYP71CU1-microsomes, 1 mM NADPH, 10 μg/mL of purified OMT1, 1 mM SAM, 30 or 50 μM of substrate and 100 mM NaCl in sodium phosphate buffer (50 mM, pH 7.4).
All substrates [(−)-matairesinol, (−)-arctigenin, (−)-pluviatolide, (−)-5′-desmethoxy-yatein, (−)-yatein, (−)-deoxypodophyllotoxin, and (−)-podophyllotoxin] were derived from a 100% DMSO stock; final concentration of DMSO in enzyme assays was kept constant at 5%. Total reaction volumes were 50 μL. Reactions were initiated by the addition of enzyme and incubated at 30° C.
After 2 h of incubation, reactions were quenched by the addition of 1 volume of acetonitrile with 0.1% TFA and clarified by centrifugation for 10 min at 17,000 g.

T3 sequence (A0A0N9HQ36 whole entry): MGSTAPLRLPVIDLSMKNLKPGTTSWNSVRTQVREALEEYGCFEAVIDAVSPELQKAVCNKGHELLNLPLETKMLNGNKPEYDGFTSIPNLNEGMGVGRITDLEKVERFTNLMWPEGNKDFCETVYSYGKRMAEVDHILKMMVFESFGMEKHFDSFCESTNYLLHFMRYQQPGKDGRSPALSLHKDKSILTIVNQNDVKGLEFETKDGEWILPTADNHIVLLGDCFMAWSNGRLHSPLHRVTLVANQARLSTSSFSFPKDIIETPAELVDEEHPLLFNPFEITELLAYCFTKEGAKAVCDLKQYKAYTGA

| Compound | acceptance as substrate by OMT3 [1] | activity of CYP71BE54-enriched microsomes on substrate [2] | activity of OMT1 on substrate [4] | activity of CYP71CU1 on substrate [5] | also measured |
| --- | --- | --- | --- | --- | --- |
| COc1cc(C2OCC3C(c4ccc(O)c(OC)c4)OCC23)ccc1O (single isomer, unassigned; (+)) [(+)-pinoresinol] | did not turn over |  |  |  |  |
| COc1cc([C@@H]2c3cc4c(cc3[C@H](O)[C@H]3COC(=O)[C@H]23)OCO4)cc(OC)c1OC [(−)-podophyllotoxin] |  | No activity |  |  |  |
| COc1cc(C[C@H]2C(=O)OC[C@@H]2Cc2ccc3c(c2)OCO3)ccc1O [(−)-pluviatolide] |  |  | not active | not active | activity of 2-ODD on substrate, compared to (−)-yatein [3]: negligible activity; kcat ([1]; (−)-pluviatolide methylation by OMT3 purified from E. coli, 1 mM SAM, 22° C., pH 7.4): 0.72 s⁻¹; Km ([1]; (−)-pluviatolide methylation by OMT3 purified from E. coli, 1 mM SAM, 22° C., pH 7.4, read-out: apparent Km): 1.4 µM |
| COc1ccc(C[C@H]2C(=O)OC[C@@H]2Cc2ccc3c(c2)OCO3)cc1OC [(−)-5′-desmethoxy-yatein] |  | No activity |  |  | activity of 2-ODD on substrate, compared to (−)-yatein [3]: some activity |
| COc1cc(C[C@H]2COC(=O)[C@@H]2Cc2ccc(O)c(OC)c2)ccc1O [(−)-matairesinol] | much lower efficiency |  | not active | not active |  |
| COc1cc(C[C@H]2C(=O)OC[C@@H]2Cc2ccc3c(c2)OCO3)cc(OC)c1OC [(−)-yatein] |  | No activity |  |  |  |
| COc1cc(C[C@H]2C(=O)OC[C@@H]2Cc2ccc(OC)c(OC)c2)ccc1O [(−)-arctigenin] | much lower efficiency |  | not active | not active |  |
